Test results as given in patent US20080044419A1, “Treatment of T Cell Mediated Diseases by Inhibition of Fgfr3” (Fibron Ltd., priority 2003, published 2008).

Key:
[1] = system: Collagen Induced Arthritis (CIA) mice; test: Murine Collagen Induced Arthritis (CIA) model, paw edema; assay type: in vivo; conditions: i.p. daily injections
Method: Murine collagen-induced arthritis (CIA) is considered a useful model for studying human RA since the two diseases share numerous pathologic, immunological, and genetic features. The CIA model in mice results in a symmetric polyarthritis in which bone and cartilage erosion typically occur, 2-4 weeks after immunization with […] type II collagen on complete Freud's adjuvant (CFA).
Male DBA/l mice (8-10 weeks old) were subject to an intradermal injection at the base of the tail with 200 μg type II collagen purified from bovine articular cartilage emulsified in CFA. The mice received a booster injection of 200 μg type II collagen emulsified in CFA three weeks after the first dose.
The mice were checked daily and each animal with edema in one or more limbs was randomly assigned to one of several groups for further treatment. The thickness of each affected hind paw was measured with microcalipers. The results are expressed as a direct measure of paw width in millimeters.
Each mouse was injected intraperitoneally on the day following disease onset (day 1) with 100 ug anti-FGFR3-ScFv or anti-FGFR3 Fab′ or 20 mg/kg of a FGFR3 specific tyrosine kinase (TK) inhibitor (SU5402, Calbiochem, La Jolla, Calif.), followed by daily injections with 300 μg anti-FGFR3 ScFv or anti-FGFR3 Fab′ or with 20 mg/kg SU5402.

[2] = system: cutaneous delayed type hypersensitivity reactions in mice; test: Delayed type hypersensitivity (DTH) assay, oxazolone, ear thickness; assay type: in vivo; conditions: treated mice, oxazolone challenge, measured after 24 hours
Method: The mouse model for cutaneous delayed type hypersensitivity reactions was used to investigate the effects of FGFR3 inhibitors on induced skin inflammation. Oxazolone solutions (2% and 0.5%) were prepared by dissolving 200 and 50 mg, respectively, of oxazolone in 8 ml of acetone and 2 ml of olive oil. Mice were challenged with oxazolone by topical application onto the abdomen of each mouse (100 μl of 2% oxazolone) followed by 10 μl of 0.5% oxazolone on the right ear after 6 days. Differences between right and left ear thickness, indicating DTH development, were measured after 24 hours using a microcaliper.

Q: With `Cc1c[nH]c(/C=C2\C(=O)Nc3ccccc32)c1CCC(=O)O` [SU5402] as the compound, how does the “reduction in paw edema” value [1] read?
A: significant reduction

Q: And the “DTH reaction: induction of edema (ear thickness difference)” value [2]?
A: no induction of edema
